The source made the active and inactive calls. No cut-off for these calls is given here.
Key:
LNCaP [1] = assay: Reduction of prostate specific antigen expression level in human LNCaP cells at 10 uM; format: functional; parameters: scale not given: the % may be the effect or the level left
LNCaP [2] = assay: Increase in prostate specific antigen expression level in human LNCaP cells at 1 uM; format: functional, cell-based
HeLa = assay: Effect on translocation of androgen receptor from cytoplasm to nucleus in human HeLa cells at 1 uM in presence of dihydrotestosterone; format: functional
[3] = molecular target: T1, 5-hydroxytryptamine receptor 2C (Homo sapiens) (UniProt P28335); assay: Displacement of [3H]mesulergine from human dopamine 5HT2C receptor expressed in CHO-K1 cells upto 1 uM; format: cell-based
T1 sequence (whole entry): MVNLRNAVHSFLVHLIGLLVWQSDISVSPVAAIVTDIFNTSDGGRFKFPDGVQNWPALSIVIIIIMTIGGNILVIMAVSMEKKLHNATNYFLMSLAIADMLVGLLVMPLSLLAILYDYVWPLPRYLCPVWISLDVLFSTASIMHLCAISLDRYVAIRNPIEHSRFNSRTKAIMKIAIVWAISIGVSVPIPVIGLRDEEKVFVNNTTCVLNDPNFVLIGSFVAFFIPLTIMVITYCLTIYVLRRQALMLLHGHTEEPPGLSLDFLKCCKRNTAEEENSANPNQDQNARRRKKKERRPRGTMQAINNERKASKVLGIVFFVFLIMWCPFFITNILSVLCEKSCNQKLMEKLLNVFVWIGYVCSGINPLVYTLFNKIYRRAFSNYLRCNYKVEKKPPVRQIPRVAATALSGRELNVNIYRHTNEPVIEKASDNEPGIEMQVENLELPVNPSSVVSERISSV

Androgen receptor [4] = molecular target: T2, Androgen receptor (Homo sapiens, UniProt P10275); assay: Inhibition of wild type androgen receptor expressed in CV1 cells assessed as dihydrotestosterone-stimulated transactivation by CAT reporter gene assay; format: cell-based, CV-1
T2 sequence (P10275 whole entry): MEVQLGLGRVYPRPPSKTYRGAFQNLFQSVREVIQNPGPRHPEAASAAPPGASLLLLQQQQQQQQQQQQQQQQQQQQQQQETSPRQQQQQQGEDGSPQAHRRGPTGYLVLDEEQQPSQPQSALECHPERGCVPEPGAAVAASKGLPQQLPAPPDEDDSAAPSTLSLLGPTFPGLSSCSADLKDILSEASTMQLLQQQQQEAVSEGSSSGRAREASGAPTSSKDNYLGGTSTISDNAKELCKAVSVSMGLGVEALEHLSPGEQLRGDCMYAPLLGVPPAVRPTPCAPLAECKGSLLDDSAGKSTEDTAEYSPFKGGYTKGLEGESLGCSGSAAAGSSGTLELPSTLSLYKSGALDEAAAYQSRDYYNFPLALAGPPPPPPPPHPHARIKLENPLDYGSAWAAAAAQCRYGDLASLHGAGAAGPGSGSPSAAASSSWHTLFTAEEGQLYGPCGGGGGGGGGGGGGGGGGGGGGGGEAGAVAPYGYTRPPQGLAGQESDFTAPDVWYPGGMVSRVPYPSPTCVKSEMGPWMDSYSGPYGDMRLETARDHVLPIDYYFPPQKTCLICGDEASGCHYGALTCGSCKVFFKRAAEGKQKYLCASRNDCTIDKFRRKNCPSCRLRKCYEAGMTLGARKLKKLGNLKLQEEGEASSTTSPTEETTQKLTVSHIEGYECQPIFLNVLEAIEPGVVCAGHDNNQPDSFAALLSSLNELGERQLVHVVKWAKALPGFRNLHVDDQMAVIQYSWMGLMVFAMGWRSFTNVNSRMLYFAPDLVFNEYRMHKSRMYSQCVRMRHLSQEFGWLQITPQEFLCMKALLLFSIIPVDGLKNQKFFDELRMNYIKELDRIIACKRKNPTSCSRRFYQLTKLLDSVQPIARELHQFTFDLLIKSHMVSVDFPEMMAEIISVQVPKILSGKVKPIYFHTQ

PC-3 = assay: Cytotoxicity against human PC3 cells upto 10 uM by SRB assay; format: functional, cell-based
[5] = molecular target: D(2) dopamine receptor (Homo sapiens) (UniProt P14416); assay: Displacement of [3H]spiperone from human dopamine D2L receptor expressed in CHO FlpIn cells upto 1 uM; format: cell-based
Sequence of D(2) dopamine receptor (Homo sapiens) (P14416 whole entry): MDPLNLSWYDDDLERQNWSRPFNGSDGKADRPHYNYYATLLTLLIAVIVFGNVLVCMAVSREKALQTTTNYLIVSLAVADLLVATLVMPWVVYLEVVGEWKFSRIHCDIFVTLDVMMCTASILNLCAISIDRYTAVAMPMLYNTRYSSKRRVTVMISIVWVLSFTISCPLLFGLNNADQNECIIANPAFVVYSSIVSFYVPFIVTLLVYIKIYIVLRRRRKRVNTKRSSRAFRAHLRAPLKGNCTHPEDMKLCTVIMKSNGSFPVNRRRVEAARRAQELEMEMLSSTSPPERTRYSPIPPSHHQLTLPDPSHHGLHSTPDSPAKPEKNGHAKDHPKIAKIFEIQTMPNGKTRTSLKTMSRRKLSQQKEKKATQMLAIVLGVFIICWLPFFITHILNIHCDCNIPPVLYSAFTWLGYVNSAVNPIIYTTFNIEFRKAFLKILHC

[6] = molecular target: 5-hydroxytryptamine receptor 2A (Homo sapiens) (UniProt P28223); assay: Displacement of [3H]ketanserin from human dopamine 5HT2A receptor expressed in CHO-K1 cells upto 1 uM; format: cell-based
Sequence of 5-hydroxytryptamine receptor 2A (Homo sapiens) (P28223 whole entry): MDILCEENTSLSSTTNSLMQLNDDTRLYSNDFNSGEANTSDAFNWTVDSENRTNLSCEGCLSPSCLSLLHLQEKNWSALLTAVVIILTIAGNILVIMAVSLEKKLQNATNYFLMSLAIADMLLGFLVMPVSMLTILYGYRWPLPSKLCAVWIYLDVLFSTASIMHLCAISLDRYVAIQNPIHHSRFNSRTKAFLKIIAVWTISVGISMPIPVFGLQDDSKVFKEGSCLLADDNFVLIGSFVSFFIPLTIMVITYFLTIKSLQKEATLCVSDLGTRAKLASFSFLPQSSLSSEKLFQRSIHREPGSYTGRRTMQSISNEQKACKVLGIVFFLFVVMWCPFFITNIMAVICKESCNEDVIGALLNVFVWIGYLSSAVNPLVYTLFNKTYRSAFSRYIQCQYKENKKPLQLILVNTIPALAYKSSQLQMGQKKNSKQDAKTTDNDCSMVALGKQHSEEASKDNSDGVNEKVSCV

Androgen receptor [7] = molecular target: T3, Androgen receptor (Rattus norvegicus, UniProt P15207); assay: Displacement of [3H]mibolerone from rat androgen receptor
T3 sequence (P15207 whole entry): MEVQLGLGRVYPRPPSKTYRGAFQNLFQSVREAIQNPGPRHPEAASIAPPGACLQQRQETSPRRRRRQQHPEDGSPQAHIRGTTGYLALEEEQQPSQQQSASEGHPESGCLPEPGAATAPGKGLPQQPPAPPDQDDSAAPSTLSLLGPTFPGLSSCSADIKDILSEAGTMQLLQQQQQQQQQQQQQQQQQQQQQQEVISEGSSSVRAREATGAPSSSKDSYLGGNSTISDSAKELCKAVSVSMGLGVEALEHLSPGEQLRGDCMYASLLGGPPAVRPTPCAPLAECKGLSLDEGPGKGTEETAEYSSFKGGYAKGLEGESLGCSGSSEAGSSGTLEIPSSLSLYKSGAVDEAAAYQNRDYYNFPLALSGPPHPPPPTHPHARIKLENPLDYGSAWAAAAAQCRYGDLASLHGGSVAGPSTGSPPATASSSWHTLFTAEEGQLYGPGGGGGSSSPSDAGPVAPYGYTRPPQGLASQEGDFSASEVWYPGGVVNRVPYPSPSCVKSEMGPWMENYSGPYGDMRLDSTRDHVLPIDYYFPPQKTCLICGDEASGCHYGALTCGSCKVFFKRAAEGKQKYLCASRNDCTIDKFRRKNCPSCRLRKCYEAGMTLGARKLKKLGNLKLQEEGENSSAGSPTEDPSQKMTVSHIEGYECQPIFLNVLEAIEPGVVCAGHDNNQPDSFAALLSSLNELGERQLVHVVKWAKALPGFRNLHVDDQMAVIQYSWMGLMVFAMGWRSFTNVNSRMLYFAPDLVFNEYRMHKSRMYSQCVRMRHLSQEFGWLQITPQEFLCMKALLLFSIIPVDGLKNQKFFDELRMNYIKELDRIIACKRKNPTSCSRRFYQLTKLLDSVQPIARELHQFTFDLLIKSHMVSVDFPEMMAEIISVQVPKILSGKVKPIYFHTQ

Row | Activity [3] | IC50 (Androgen receptor [4]; read-out: IC50) [nM] | IC50 (Androgen receptor [4]; read-out: Log IC50 (converted)) [nM] | Activity [5] | Activity [6] | Ki (Androgen receptor [7]) [nM] | Compound | Activity (LNCaP [1]) [%] | Activity (LNCaP [2]) | Activity (HeLa) [%] | Activity (PC-3)
1 | inactive | 250 | 251 | inactive | inactive | – | O=C(CN1c2ccccc2Sc2ccc(C(F)(F)F)cc21)c1cccc2ccccc12 | >80 | Active | >90 | inactive
2 | – | – | – | – | – | 3000 | N#Cc1ccc2c(c1)N(CCCN1CCC(O)CC1)c1ccccc1S2 [PERICIAZINE] | – | – | – | –

From ChEMBL document CHEMBL1145525, “Discovery of antiandrogen activity of nonsteroidal scaffolds of marketed drugs” (Proc Natl Acad Sci U S A, 2007)
